Results from ChEMBL document CHEMBL1150757, “Isolation, structure, synthesis, and antimitotic properties of combretastatins B-3 and B-4 from Combretum caffrum” (J Nat Prod, 1988).

What was measured:
[1] = Displacement of [3H]colchicine from tubulin at inhibitor and colchicine ratio 10:1 after 10 mins relative to control; design: concentration or dose not given beside the values; conditions: values are per cent of control
L1210 [2] = test: Antimitotic activity in mouse L1210 cells assessed as increase in mitotic index at 2 to 7 times IC50 after 6 hrs relative to control; assay type: functional
L1210 [3] = test: Cytotoxicity against mouse L1210 cells after 24 hrs; assay type: functional, cell-based; conditions: L1210, 24 h
[4] = Inhibition of microtubule assembly after 15 mins
[5] = Displacement of [3H]colchicine from tubulin at inhibitor and colchicine ratio 1:1 after 10 mins relative to control; design: concentration or dose not given beside the values; conditions: values are per cent of control
P388 = test: Cytotoxicity against mouse P388 cells; assay type: functional
[6] = Displacement of [3H]colchicine from tubulin at inhibitor and colchicine ratio 100:1 after 10 mins relative to control; conditions: values are per cent of control

Row | Structure (SMILES) | residual binding, % of control [1] [%] | Activity (L1210 [2]) [%] | IC50 (L1210 [3]) [µM] | IC50 [4] [µM] | residual binding, % of control [5] [%] | ED50 (P388) [Ug/ml] | residual binding, % of control [6] [%]
1 | COc1ccc(CCc2cc(OC)c(OC)c(OC)c2)c(O)c1O | 0 | 25 | 2 | 4 | 13 |  | 
2 | COc1cc([C@@H]2c3cc4c(cc3[C@H](O)[C@H]3COC(=O)[C@H]23)OCO4)cc(OC)c1OC [PODOFILOX] | 0 |  |  | 4 | 11 |  | 
3 | COc1ccc(/C=C\c2cc(OC)c(OC)c(OC)c2)c(O)c1O [COMBRETASTATIN A-1] | 0 | 25 | 0.6 | 4 | 3 |  | 
4 | COc1cc(CCc2ccc(O)cc2)cc(OC)c1OC | 77 | 25 | 50 | > 100 | 89 | 0.25 | 43
5 | COc1ccc(CCc2cc(OC)c(OC)c(OC)c2)cc1OC | 63 | 25 | 20 | > 100 | 88 |  | 37
6 | COc1cc(CCc2ccc(OC)c(O)c2)cc(OC)c1 | 8 | 25 | 1 | 30 | 38 | 1.7 | 3
7 | COc1cc(CCc2ccc(OC)c(OC)c2)cc(OC)c1 | 80 | 56 | 30 | > 100 | 90 |  | 34
8 | COc1cc(CCc2ccc(O)c(O)c2)cc(OC)c1OC | 81 | 25 | 3 | > 100 | 92 | 0.4 | 48
9 | COc1cc(CCc2ccc(O)c(O)c2)cc(OC)c1 | 31 | 25 | 1 | > 100 | 75 | 1.7 | 10
